From US8710097B2, “Flavonoid dimers and methods of making and using such” (The Hong Kong Polytechnic University, priority 2006, dated 2014)
Read-outs that look alike come from different tables or passages of the source.

Experiments:
[1] = test system: P388 cells; experiment: Cell proliferation (MTS) assay, parental sensitive cells; assay type: cell-based, murine; conditions: Mus musculus
From the text: (§1) Cell proliferation assay.

[2] = test system: MDA435/LCC6 MDR cells; experiment: cells; conditions: for IC50: Homo sapiens; for RF (relative fold): LCC6 MDR, drug alone (reference)
Protocol: (§2) MDA435/LCC6 and P388 (both parent and MDR subtype) were maintained in DMEM and RPMI 1640 culture medium supplemented with 10% FBS, respectively. RPMI 1640 media also contained 100 units/ml penicillin and 100 μg/ml streptomycin. Cells were cultured at 37° C. in a humidified atmosphere with 5% CO2. A solution of 0.05% trypsin-EDTA was used to detach the MDA435/LCC6 (both wild type and MDR subtype) cells.
(§3) Cell proliferation assay. MDA435/LCC6 and P388 (both parent and MDR subtype) cells were seeded at 2000 and 5000 cells per well, respectively, in 96-well plates. Varying concentrations of anticancer drugs (Doxorubicin, Daunorubicin, Vincristine, Vinblastine, taxol, Mitoxantrone) with or without the flavonoid dimers were added in a final volume of 200 μl and cells were grown for 4 and 3 days for MDA435/LCC6 and P388 (both parent and MDR subtype) cells, respectively. For MDA435/LCC6 (both parent and MDR subtype), the corresponding drugs were added after cell attachment (24 hr incubation). To measure cell proliferation, the cell Titer 960 Aqueous Assay (Promega) was used according to the manufacturer's instructions. Briefly, MTS (2 mg/ml) and PMS (0.92 mg/ml) were mixed in a ratio of 20:1. 30 μl MTS/PMS mixture was added into each well and incubated for 2 hours at 37° C. Optical absorbance at 490 nm was then recorded using an ELISA microtiter plate reader (Bio-Rad). Each experiment was done at least in triplicate and repeated twice. Cytotoxicity of the anticancer drugs was expressed as the fraction of the cells survived relative to the untreated DMSO (0.05%) solvent controls.
MDA435/LCC6 is an estrogen-independent human breast cancer cell line. Its MDR subtype (MDA435/LCC6 MDR) was generated by transducing a retroviral vector directing the constitutive expression of the human MDR1 cDNA, producing a cell line with a classical MDR1 resistance pattern (MDA435/LCC6 and MDA435/LCC6MDR1: ascites models of human breast cancer. Br J Cancer 1996, 73, 154-161). The ability of the apigenin dimers of this invention to reverse taxol resistance in MDA435/LCC6 MDR cells were tested. […] Apigenin monomers 10a and 10b at 10 μM were used as the negative controls.

[3] = test system: MDA435/LCC6 cells; experiment: Cell proliferation (MTS) assay, parental sensitive cells; assay type: cell-based; conditions: Homo sapiens, read-out: IC50 (nM) of anticancer drug alone
From the text: as §1

[4] = test system: P388/ADR cells; experiment: cells; conditions: P388/ADR; for IC50: Mus musculus; for RF (relative fold): drug alone (reference)
Protocol: as §2, §3

[5] = 96 h, read-out: IC50 (nM) of anticancer drug alone, LCC6 MDR, drug alone, no modulator
[6] = read-out: IC50 (nM) of anticancer drug alone
[7] = read-out: IC50 of anticancer drug alone
[8] = P388, drug alone, read-out: IC50 (nM) of anticancer drug alone

| IC50 [2, 5] | IC50 [4, 6] | IC50 ([2]; read-out: Mean IC50 of taxol (nM), LCC6MDR, no analog added (control)) | SMILES | IC50 ([1]; P388, read-out: IC50 (nM) of anticancer drug alone) | RF (relative fold) [2] | IC50 [3] | IC50 [4, 7] | RF (relative fold) [4] | IC50 [1, 8] | IC60 of doxorubicin alone ([2]; MDA435/LCC6 MDR, no modulator, FIG. 5) | IC50 ([3]; LCC6, drug alone) |
| --- | --- | --- | --- | --- | --- | --- | --- | --- | --- | --- | --- |
| 4690 nM | 1740 nM | – | COc1cccc2c1C(=O)c1c(O)c3c(c(O)c1C2=O)C[C@@](O)(C(=O)CO)C[C@@H]3O[C@H]1C[C@H](N)[C@H](O)[C@H](C)O1 [Doxorubicin] | – | 1 | – | 1500 nM | 1 | 22 nM | 4700 nM | 300 nM |
| 115 nM | 1640 nM | 128 nM | CC(=O)O[C@H]1C(=O)[C@@]2(C)[C@H]([C@H](OC(=O)c3ccccc3)[C@]3(O)C[C@H](OC(=O)[C@H](O)[C@@H](NC(=O)c4ccccc4)c4ccccc4)C(C)=C1C3(C)C)[C@]1(OC(C)=O)CO[C@@H]1C[C@@H]2O [Taxol, paclitaxel] | – | 1 | – | – | 1 | 22 nM | – | 2.9 nM |
| 26 nM | 299 nM | – | CC[C@]1(O)C[C@H]2CN(CCc3c([nH]c4ccccc34)[C@@](C(=O)OC)(c3cc4c(cc3OC)N(C=O)[C@H]3[C@@](O)(C(=O)OC)[C@H](OC(C)=O)[C@]5(CC)C=CCN6CC[C@]43[C@@H]65)C2)C1 [Vincristine] | – | 1 | – | – | 1 | 2.2 nM | – | 0.29 nM |

Further lines, the compound ahead of its results:

| SMILES | IC50 [2, 5] | IC50 [4, 6] | IC50 ([2]; read-out: Mean IC50 of taxol (nM), LCC6MDR, no analog added (control)) | IC50 ([1]; P388, read-out: IC50 (nM) of anticancer drug alone) | RF (relative fold) [2] | IC50 [3] | IC50 [4, 7] | RF (relative fold) [4] | IC50 [1, 8] | IC60 of doxorubicin alone ([2]; MDA435/LCC6 MDR, no modulator, FIG. 5) | IC50 ([3]; LCC6, drug alone) |
| --- | --- | --- | --- | --- | --- | --- | --- | --- | --- | --- | --- |
| COc1cccc2c1C(=O)c1c(O)c3c(c(O)c1C2=O)C[C@@](O)(C(C)=O)C[C@@H]3O[C@H]1C[C@H](N)[C@H](O)[C@H](C)O1 [Daunorubicin] | 977 nM | 2110 nM | – | 25 nM | 1 | 79 nM | 2100 nM | 1 | – | – | – |
| O=C1c2c(O)ccc(O)c2C(=O)c2c(NCCNCCO)ccc(NCCNCCO)c21 [Mitoxantrone] | 1440 nM | 395 nM | – | – | 1 | – | – | 1 | 4.3 nM | – | 0.35 nM |
